Test results taken from patent US8486683B2, “Beta-glucosidase enzymes” (Iogen Energy Corporation, priority 2009, dated 2013).
Several values for one entry are separate records, joined by “and”; a condition that tells them apart may be missing. Identical values can stand only once.

Columns and labels:
[1] = biological target: T1, Trichoderma reesei beta-glucosidase TrCel3A (Cel3A, BGL1), wild type (parental), SEQ ID NO: 116 / SEQ ID NO: 1 (Trichoderma reesei, UniProt Q12715); assay: Initial rate assay of cellobiose hydrolysis, parental TrCel3A (Example 9); type: biochemical
T1 sequence (Q12715 32-744): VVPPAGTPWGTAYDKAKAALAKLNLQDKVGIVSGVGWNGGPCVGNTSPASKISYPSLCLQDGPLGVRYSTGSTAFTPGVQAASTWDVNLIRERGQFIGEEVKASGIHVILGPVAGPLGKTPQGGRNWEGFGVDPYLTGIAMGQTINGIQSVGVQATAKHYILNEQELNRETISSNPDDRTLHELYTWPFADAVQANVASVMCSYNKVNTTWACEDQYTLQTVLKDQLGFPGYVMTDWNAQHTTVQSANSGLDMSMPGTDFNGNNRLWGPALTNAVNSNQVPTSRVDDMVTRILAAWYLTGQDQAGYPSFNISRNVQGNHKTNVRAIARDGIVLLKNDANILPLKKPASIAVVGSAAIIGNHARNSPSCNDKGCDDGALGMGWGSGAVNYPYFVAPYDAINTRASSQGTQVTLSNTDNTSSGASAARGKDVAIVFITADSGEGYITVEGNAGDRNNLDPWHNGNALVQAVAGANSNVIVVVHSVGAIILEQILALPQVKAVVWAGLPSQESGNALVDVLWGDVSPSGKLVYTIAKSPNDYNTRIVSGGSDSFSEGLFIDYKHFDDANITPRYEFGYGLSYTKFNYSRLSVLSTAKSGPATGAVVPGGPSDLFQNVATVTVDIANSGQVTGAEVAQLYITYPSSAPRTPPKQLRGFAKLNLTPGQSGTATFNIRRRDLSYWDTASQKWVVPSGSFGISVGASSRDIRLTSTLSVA
Source text: (§1) KG is defined as the concentration of glucose which reduces the enzymatic activity of the beta-glucosidase by 50%. […] The kcat is the catalytic rate constant for the hydrolysis of cellobiose. Example 8 details an assay for measuring the KG and KG2 of parental and modified TrCel3A beta-glucosidases. Example 9 details an assay for measuring the kcat of parental and modified TrCel3A beta-glucosidases.
(§2) KG of the parental and modified TrCel3A beta-glucosidases can be determined by measuring the rate of hydrolysis of a chromogenic substrate, such as p-nitrophenyl-beta-D-glucopyranoside (pNPG), in the presence of various concentrations of glucose as described in Example 8. […] The KG2 constants for parental and modified TrCel3A beta-glucosidases can be determined by measuring the rate of hydrolysis of cellobiose in reactions containing increasing concentrations of cellobiose or, alternatively, by measuring the rate of hydrolysis of a chromogenic substrate, such as pNPG, in the presence of various concentrations of a cellobiose as described in Example 8. […] The kcat values for parental and modified TrCel3A beta-glucosidases can be determined by measuring the rate of cellobiose hydrolysis at varying concentrations of a cellobiose substrate, for example, as described in Example 9. […]

[2] = system: Trichoderma reesei beta-glucosidase TrCel3A variant TrCel3A-I543N, SEQ ID NO: 10 (full: SEQ ID NO: 125); assay: Initial rate assay of cellobiose hydrolysis, TrCel3A-I543N (Example 9); type: biochemical; conditions: relative to parental TrCel3A
Source text: as §1, §2

[3] = biological target: T1, Trichoderma reesei beta-glucosidase TrCel3A (Cel3A, BGL1), wild type (parental), SEQ ID NO: 116 / SEQ ID NO: 1; assay: pNPG competitive substrate/inhibitor real-time kinetic assay, parental TrCel3A (Example 8)
[4] = biological target: Beta-glucosidases from most fungi; conditions: literature, read-out: KG values for glucose (glucose inhibition); cited from earlier work
[5] = biological target: Several microbial beta-glucosidases with higher tolerance to glucose inhibition; conditions: literature, read-out: KG (tolerance to glucose inhibition); cited from earlier work
[6] = substrate: OC[C@H]1O[C@@H](O[C@H]2[C@H](O)[C@@H](O)C(O)O[C@@H]2CO)[C@H](O)[C@@H](O)[C@@H]1O; assay: purified protein, by the assay type; conditions: other: 0.4 mM pNPG, 3 mM cellobiose, 50 mM citrate pH 5.0, 50° C.

**Q.** Which results are given for `OC[C@H]1O[C@@H](O[C@H]2[C@H](O)[C@@H](O)C(O)O[C@@H]2CO)[C@H](O)[C@@H](O)[C@@H]1O` (stereo partly drawn) [cellobiose, gluco-beta-(1,4)-glucoside]?
**A.** kcat (catalytic rate constant for cellobiose) ([1]; 0.3 to 40 mM cellobiose, 50° C., 15 min): 8.92 µmol/min/mg and 8.92 ± 0.29 µmol/min/mg; Relative kcat ([1]; cellobiose, relative to parental TrCel3A): 1; Relative kcat [2]: 0.73; Relative KG2 ([3]; relative to parental TrCel3A): 1.00

**Q.** For `OC[C@H]1OC(O)[C@H](O)[C@@H](O)[C@@H]1O` (some centres unmarked) [glucose], which Ki [4] is on record?
**A.** 600 to 8000 µM

**Q.** What about the Ki [5] of the same molecule?
**A.** > 8000 µM

**Q.** What about the Ki [3] of the same molecule?
**A.** 580 µM

B1: Trichoderma reesei beta-glucosidase TrCel3A (Cel3A, BGL1), wild type (parental), SEQ ID NO: 116 / SEQ ID NO: 1 (Trichoderma reesei) (protein)
chain: T1 sequence (Q12715 32-744)
**Q.** With B1 as the molecule, how does the Km [6] read?
**A.** 1180 ± 120 µM
